Reference: patent US8088806B2 (Achillion Pharmaceuticals, Inc., priority 2005, dated 2012)

Tested on: HCV replicon
Assay: Replicon based assay of HCV replication inhibition (NPT ELISA)
Assay type: cell-based, Hepatitis C virus
Details: Hepatitis C virus, Huh-7, 72 h, Table III; Huh-7 HCV replicon-containing cells, three days; read-out: Activity
How it was run: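 NPT (neomycin phosphotransferase) content, proportional to replicon replication, quantified by capture ELISA on day four. Before that, replicon-bearing Huh-7 cells in G418-free screening medium were exposed three days at 37° C to compound, typically six doses from 10 to 0.03 micromolar, with equal DMSO across wells.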

Compound `CCCCCOc1ccc(Nc2nc(Cc3ccc(OC)cc3)cs2)cc1C(F)(F)F` [compound 639, 4-(4-methoxybenzyl)-N-(3-(trifluoromethyl)-4-(pentyloxy)phenyl)thiazol-2-amine] has an EC50 of 1 to 10 µM.
`CCCCCCCCOc1ccc(Nc2nc(Cc3ccc(OC)cc3)cs2)cc1` [compound 640, 4-(4-methoxybenzyl)-N-(4-(octyloxy)phenyl)thiazol-2-amine] was tested, and the EC50 was greater than 10 µM.
Work on `CCCCCCCCOc1ccc(Nc2nc(Cc3ccc(OC)cc3)cs2)cc1C(F)(F)F` [compound 641, 4-(4-methoxybenzyl)-N-(3-(trifluoromethyl)-4-(octyloxy)phenyl)thiazol-2-amine] yielded an EC50 of less than 1 µM.
Compound `CCCCCOc1ccc(Nc2nc(Cc3ccc(OC)cc3)cs2)cc1F` [compound 642, 4-(4-methoxybenzyl)-N-(3-fluoro-4-(pentyloxy)phenyl)thiazol-2-amine] has an EC50 greater than 10 µM.
`CCCCCN(C)c1ccc(Nc2nc(Cc3ccc(OC)cc3)cs2)cc1C(F)(F)F` [compound 643, N^4-(4-(4-methoxybenzyl)thiazol-2-yl)-2-(trifluoromethyl)-N^1-methyl-N^1-pentylbenzene-1,4-diamine] was tested, and the EC50 was greater than 10 µM.
`CCCCCCCCN(C)c1ccc(Nc2nc(Cc3ccc(OC)cc3)cs2)cc1` [compound 644, N^1-(4-(4-methoxybenzyl)thiazol-2-yl)-N^4-methyl-N^4-octylbenzene-1,4-diamine] gave an EC50 greater than 10 µM.
For `CCC(CC)Oc1ccc(Nc2nc(-c3cccnc3)cs2)cc1C(F)(F)F` [compound 645, N-(3-(trifluoromethyl)-4-(pentan-3-yloxy)phenyl)-4-(pyridin-3-yl)thiazol-2-amine], the EC50 was less than 1 µM.
Work on `CCCCCOc1ccc(Nc2nc(-c3cncc(C(=O)O)c3)cs2)cc1C(F)(F)F` [compound 646, 5-(2-(3-(trifluoromethyl)-4-(pentyloxy)phenylamino)thiazol-4-yl)pyridine-3-carboxylic acid] yielded an EC50 of less than 1 µM.
With `CCCCCOc1ccc(Nc2nc(-c3cncc(C(=O)N(C)C)c3)cs2)cc1C(F)(F)F` [compound 647, 5-(2-(3-(trifluoromethyl)-4-(pentyloxy)phenylamino)thiazol-4-yl)-N,N-dimethylpyridine-3-carboxamide] the EC50 was less than 1 µM.
Work on `CCCCCCCCOc1ccc(Nc2nc(-c3cncc(C(=O)O)c3)cs2)cc1` [compound 648, 5-(2-(4-(octyloxy)phenylamino)thiazol-4-yl)pyridine-3-carboxylic acid] yielded an EC50 of 1 to 10 µM.
Work on `CCCCCCCCOc1ccc(Nc2nc(-c3cncc(C(=O)N(C)C)c3)cs2)cc1` [compound 649, 5-(2-(4-(octyloxy)phenylamino)thiazol-4-yl)-N,N-dimethylpyridine-3-carboxamide] yielded an EC50 of 1 to 10 µM.
Work on `CCCCCCCCOc1ccc(Nc2nc(O)cs2)cc1C(F)(F)F` [compound 650, 2-(3-(trifluoromethyl)-4-(octyloxy)phenylamino)thiazol-4-ol] yielded an EC50 of 1 to 10 µM.
With `CCCCCCCCN(C)c1ccc(Nc2nc(O)cs2)cc1C(F)(F)F` [compound 651] the EC50 was 1 to 10 µM.
In the case of `Oc1csc(Nc2ccc(OCCCC3CCCC3)c(C(F)(F)F)c2)n1` [compound 652], the EC50 is reported as 1 to 10 µM.
Work on `CCCCCCCCOc1ccc(Nc2nc(-c3cncc(C(N)=O)c3)cs2)cc1` [compound 653, 5-(2-(4-(octyloxy)phenylamino)thiazol 4-yl)pyridine-3-carboxamide] yielded an EC50 of less than 1 µM.
`CCCCCCCCOc1ccc(Nc2nc(-c3cncc(C#N)c3)cs2)cc1C(F)(F)F` [compound 654, 5-(2-(3-(trifluoromethyl)-4-(octyloxy)phenylamino)thiazol-4-yl)pyridine-3-carbonitrile] was tested, and the EC50 was less than 1 µM.
`CCCCCCCCOc1ccc(Nc2nc(-c3cncc(C#N)c3)cs2)cc1` [compound 655, 5-(2-(4-(octyloxy)phenylamino)thiazol-4-yl)pyridine-3-carbonitrile] showed an EC50 of less than 1 µM.
With `CCCCCCCCOc1ccc(Nc2nc(-c3cncc(OC)c3)cs2)cc1C(F)(F)F` [compound 656, N-(3-(trifluoromethyl)-4-(octyloxy)phenyl)-4-(5-methoxypyridin-3-yl)thiazol-2-amine] the EC50 was 1 to 10 µM.
In the case of `CCCCCCCCOc1ccc(Nc2nc(-c3cncc(OC)c3)cs2)cc1` [compound 657, 4-(5-methoxypyridin-3-yl)-N-(4-(octyloxy)phenyl)thiazol-2-amine], the EC50 is reported as 1 to 10 µM.
For `FC(F)(F)c1cc(Nc2nc(-c3cccnc3)cs2)ccc1OCC1CCCCC1` [compound 658, N-(4-(cyclohexylmethoxy)-3-(trifluoromethyl)phenyl)-4-(pyridin-3-yl)thiazol-2-amine], the EC50 was less than 1 µM.
For `CCCCCCCCOc1ccc(Nc2nc(-c3cnc(O)cc3C)cs2)cc1C(F)(F)F` [compound 659, 5-(2-(3-(trifluoromethyl)-4-(octyloxy)phenylamino)thiazol-4-yl)-4-methylpyridin-2-ol], the EC50 was less than 1 µM.
`CCCCCCCCOc1ccc(Nc2nc(-c3ccc4c(c3)COC4=O)cs2)cc1C(F)(F)F` [compound 660, 5-(2-(3-(trifluoromethyl)-4-(octyloxy)phenylamino)thiazol-4-yl)isobenzofuran-1(3H)-one] was tested, and the EC50 was less than 1 µM.
Compound `CCCCCCCCOc1ccc(Nc2nc(-c3ccc(-n4ccnc4)cc3)cs2)cc1C(F)(F)F` [compound 661, 4-(4-(1H-imidazol-1-yl)phenyl)-N-(3-(trifluoromethyl)-4-(octyloxy)phenyl)thiazol-2-amine] has an EC50 of less than 1 µM.
With `CCCCCCCCOc1ccc(Nc2nc(-c3cnc(OC)nc3)cs2)cc1C(F)(F)F` [compound 662, N-(3-(trifluoromethyl)-4-(octyloxy)phenyl)-4-(2-methoxypyrimidin-5-yl)thiazol-2-amine] the EC50 was less than 1 µM.
`CCCCCCCCOc1ccc(Nc2nc(-c3cncn3C)cs2)cc1C(F)(F)F` [compound 663, N-(3-(trifluoromethyl)-4-(octyloxy)phenyl)-4-(1-methyl-1H-imidazol-5-yl)thiazol-2-amine] showed an EC50 of less than 1 µM.
Compound `CCCCCCCCOc1ccc(Nc2nc(-c3cccc4nsnc34)cs2)cc1C(F)(F)F` [compound 664, 4-(benzo[c][1,2,5]thiadiazol-4-yl)-N-(3-(trifluoromethyl)-4-(octyloxy)phenyl)thiazol-2-amine] has an EC50 of less than 1 µM.
In the case of `CCCCCCCCOc1ccc(Nc2nc(-c3ccc4[nH]c(=O)oc(=O)c4c3)cs2)cc1C(F)(F)F` [compound 665, 6-(2-(3-(trifluoromethyl)-4-(octyloxy)phenylamino)thiazol-4-yl)-1H-benzo[d][1,3]oxazine-2,4-dione], the EC50 is reported as less than 1 µM.
`CCCCCCCCOc1ccc(Nc2nc(-c3ccc(CCO)cc3)cs2)cc1C(F)(F)F` [compound 666, 2-(4-(2-(3-(trifluoromethyl)-4-(octyloxy)phenylamino)thiazol-4-yl)phenyl)ethanol] was tested, and the EC50 was less than 1 µM.
With `CCCCCCCCOc1ccc(Nc2nc(-c3ccsc3C(N)=O)cs2)cc1C(F)(F)F` [compound 667, 3-(2-(3-(trifluoromethyl)-4-(octyloxy)phenylamino)thiazol-4-yl)thiophene-2-carboxamide] the EC50 was less than 1 µM.
For `CCCCCCCCOc1ccc(Nc2nc(-c3ccc(-c4csnn4)cc3)cs2)cc1C(F)(F)F` [compound 668, 4-(4-(1,2,3-thiadiazol-4-yl)phenyl)-N-(3-(trifluoromethyl)-4-(octyloxy)phenyl)thiazol-2-amine], the EC50 was less than 1 µM.
`CCCCCCCCOc1ccc(Nc2nc(-c3ccc4c(c3)SCC(=O)N4)cs2)cc1C(F)(F)F` [compound 669, 7-(2-(3-(trifluoromethyl)-4-(octyloxy)phenylamino)thiazol-4-yl)-2H-benzo[b][1,4]thiazin-3(4H)-one] gave an EC50 of less than 1 µM.
`CCCCCCCCOc1ccc(Nc2nc(-c3ccc(N)nn3)cs2)cc1C(F)(F)F` [compound 670, 6-(2-(3-(trifluoromethyl)-4-(octyloxy)phenylamino)thiazol-4-yl)pyridazin-3-amine] gave an EC50 of less than 1 µM.
Work on `CCCCCCCCOc1ccc(Nc2nc(-c3ccsc3C#N)cs2)cc1C(F)(F)F` [compound 671, 3-(2-(3-(trifluoromethyl)-4-(octyloxy)phenylamino)thiazol-4-yl)thiophene-2-carbonitrile] yielded an EC50 of less than 1 µM.
`CCCCCCCCOc1ccc(Nc2nc(-c3cnc(Cl)c(C(=O)OC)c3)cs2)cc1C(F)(F)F` [compound 672, methyl 5-(2-(3-(trifluoromethyl)-4-(octyloxy)phenylamino)thiazol-4-yl)-2-chloropyridine-3-carboxylate] showed an EC50 of less than 1 µM.
`CCCCCCCCOc1ccc(Nc2nc(-c3ccc4nccn4c3)cs2)cc1C(F)(F)F` [compound 673, N-(3-(trifluoromethyl)-4-(octyloxy)phenyl)-4-(H-imidazo[1,2-a]pyridin-6-yl)thiazol-2-amine] was tested, and the EC50 was less than 1 µM.
`CCCCCCCCOc1ccc(Nc2nc(-c3cnc4ccc(C#N)cn34)cs2)cc1C(F)(F)F` [compound 674, 3-(2-(3-(trifluoromethyl)-4-(octyloxy)phenylamino)thiazol-4-yl)H-imidazo[1,2-a]pyridine-6-carbonitrile] was tested, and the EC50 was less than 1 µM.
Work on `CCCCCCC(C)Oc1ccc(Nc2nc(-c3cccnc3)cs2)cc1C(F)(F)F` (centres unmarked) [compound 675, N-(3-(trifluoromethyl)-4-(octan-2-yloxy)phenyl)-4-(pyridin-3-yl)thiazol-2-amine] yielded an EC50 of less than 1 µM.
Work on `CCCCCCC(C)Oc1ccc(Nc2nc(-c3ccc(NC(C)=O)nc3)cs2)cc1C(F)(F)F` (centres unmarked) [compound 676, N-(5-(2-(3-(trifluoromethyl)-4-(octan-2-yloxy)phenylamino)thiazol-4-yl)pyridin-2-yl)acetamide] yielded an EC50 of less than 1 µM.
For `CCCCCCC(C)Oc1ccc(Nc2nc(-c3ccc(N)nc3)cs2)cc1C(F)(F)F` (centres unmarked) [compound 677, 5-(2-(3-(trifluoromethyl)-4-(octan-2-yloxy)phenylamino)thiazol-4-yl)pyridin-2-amine], the EC50 was less than 1 µM.
Work on `CCCCCCCCOc1ccc(Nc2nc(-c3ccc(NC(C)=O)nc3)cs2)cc1C(F)(F)F` [compound 678, N-(5-(2-(3-(trifluoromethyl)-4-(octyloxy)phenylamino)thiazol-4-yl)pyridin-2-yl)acetamide] yielded an EC50 of less than 1 µM.
`CCCCCCCCOc1ccc(Nc2nc(-c3ccc(N)nc3)cs2)cc1C(F)(F)F` [compound 679, 5-(2-(3-(trifluoromethyl)-4-(octyloxy)phenylamino)thiazol-4-yl)pyridin-2-amine] gave an EC50 of less than 1 µM.
